Experimental data taken from publication PMC10408038 (Journal of medicinal chemistry, 2022).

Assays:
NCI-H522 cells [1] = assay: Cell viability assay; conditions: for Fold Change: ratio of IC50 (HCT-116)/ IC50 (NCI-H522); for fold increase of IC50 in the presence of Liproxstatin-1: NCI-H522, Liproxstatin-1 (0.25 μM); for IC50: cell line not given
NCI-H522 cells [2] = assay: C11-BODIPY lipid peroxidation assay; type: cell-based; conditions: 3 h or 6 h treatment
NCI-H522 cells [3] = assay: Liproxstatin-1 rescue experiments; type: cell-based; conditions: for rescue of cytotoxicity by Liproxstatin-1: compound at 2–3 times the IC50, Liproxstatin-1 0.25 μM
NCI-H522 cells [4] = assay: In-gel fluorescence labeling competition with probe; type: cell-based; conditions: competitor 20 μM
[5] = NMR kinetic study of thiol addition; type: physicochemical; conditions: DMSO-d6
NCI-H522 cells [6] = assay: Incubation time50; type: cell-based; conditions: RSL3 0.5 μM, 45 2 μM
GPX4 = target: T1, GPX4 (Homo sapiens, UniProt P36969); assay: Pulldown with Biotin-TAMRA and western blot analysis, GPX4; type: cell-based; conditions: NCI-H522; probe 10 μM; western blot
T1 sequence (P36969 28-197 limits assumed): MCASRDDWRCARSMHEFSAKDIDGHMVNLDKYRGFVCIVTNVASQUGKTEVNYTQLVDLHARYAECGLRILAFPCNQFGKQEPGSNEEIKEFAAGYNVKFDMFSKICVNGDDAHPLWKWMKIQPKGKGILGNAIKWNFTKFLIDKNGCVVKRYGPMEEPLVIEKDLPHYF

GSTO1 = target: T2, GSTO1 (Homo sapiens, UniProt P78417); assay: Pulldown with Biotin-TAMRA and western blot analysis, GSTO1; type: cell-based; conditions: NCI-H522; probe 10 μM; western blot
T2 sequence (P78417 1-241): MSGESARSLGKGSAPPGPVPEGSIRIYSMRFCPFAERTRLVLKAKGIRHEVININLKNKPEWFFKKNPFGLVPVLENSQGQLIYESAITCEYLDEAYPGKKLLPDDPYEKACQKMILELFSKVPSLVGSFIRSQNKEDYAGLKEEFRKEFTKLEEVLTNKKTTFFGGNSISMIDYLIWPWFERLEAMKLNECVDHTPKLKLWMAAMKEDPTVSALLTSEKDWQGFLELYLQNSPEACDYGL

TXRD1 = target: T3, TXRD1 (Homo sapiens, UniProt Q16881); assay: Pulldown with Biotin-TAMRA and western blot analysis, TXRD1; type: cell-based; conditions: NCI-H522; western blot
T3 sequence (Q16881 151-649 limits assumed): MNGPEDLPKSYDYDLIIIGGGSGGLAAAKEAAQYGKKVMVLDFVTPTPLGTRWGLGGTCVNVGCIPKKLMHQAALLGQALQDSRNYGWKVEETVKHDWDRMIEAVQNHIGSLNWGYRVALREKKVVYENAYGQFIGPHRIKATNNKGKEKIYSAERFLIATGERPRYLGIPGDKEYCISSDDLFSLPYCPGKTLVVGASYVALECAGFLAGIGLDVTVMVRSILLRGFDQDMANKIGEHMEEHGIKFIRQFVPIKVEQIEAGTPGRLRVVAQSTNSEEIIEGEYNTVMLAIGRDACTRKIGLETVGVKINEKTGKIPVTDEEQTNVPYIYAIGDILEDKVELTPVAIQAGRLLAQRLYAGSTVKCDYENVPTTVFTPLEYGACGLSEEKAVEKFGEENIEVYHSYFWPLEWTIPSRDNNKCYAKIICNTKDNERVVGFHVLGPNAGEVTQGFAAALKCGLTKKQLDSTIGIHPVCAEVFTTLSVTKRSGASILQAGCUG

[7] = in the presence of DABCO, N-Boc-cysteine methyl ester 10 equiv.

Compound: 2-ethynyl-N-(4-methoxyphenyl)thiazole-5-carboxamide [Compound 8]
- Fold Change (NCI-H522 cells [1]): 12.52

Compound: 2-ethynyl-N-phenylthiazole-5-carboxamide [Compound 9]
- Fold Change (NCI-H522 cells [1]): 7.39

Compound: C#Cc1nc(C(=O)N2CCN(C(c3ccc(Cl)cc3)c3ccc(Cl)cc3)CC2)cs1 [BCP-T.A, (4-(bis(4-chlorophenyl)methyl)piperazin-1-yl)(2-ethynylthiazol-4-yl)methanone]
- C11-Bodipy oxidation (lipid peroxide levels) versus DMSO (NCI-H522 cells [2]): increases lipid peroxides
- rescue of cytotoxicity by Liproxstatin-1 (NCI-H522 cells [3]): rescues cells
- fold increase of IC50 in the presence of Liproxstatin-1 (NCI-H522 cells [1]): approximately 500 fold

Compound: C#CC1=Nc2ccccc2C(C)(C)O1 [Compound 2, 2-ethynyl-4,4-dimethyl-4H-benzo[d][1,3]oxazine, reference compound]
- rescue of cytotoxicity by Liproxstatin-1 (NCI-H522 cells [3]): significant rescue
- competition with probe (65) labeling (NCI-H522 cells [4]): high competition

Compound: C#Cc1nc(C(=O)OCC)cs1 [Compound 22, ethyl 2-ethynylthiazole-4-carboxylate]
- cells rescued by Liproxstatin-1 (NCI-H522 cells [3]; (22) 10 μM, Liproxstatin-1 0.25 μM): 100%
- half-life (t1/2) of thiol addition ([5]; in the absence of DABCO): 4.43 h
- half-life (t1/2) of thiol addition [5, 7]: 0.315 h

Compound: Cn1c(I)nc2ccccc21 [Compound 31, 2-iodo-1-methyl-1H-benzo[d]imidazole]
- C11-Bodipy oxidation (lipid peroxide levels) versus DMSO (NCI-H522 cells [2]): indistinguishable from the corresponding DMSO treatment
- rescue of cytotoxicity by Liproxstatin-1 (NCI-H522 cells [3]): kill NCI-H522 cells at the same rates both in the absence and presence of Liproxstatin-1

Compound: C=Cc1nc2ccccc2n1C [Compound 39, 1-methyl-2-vinyl-1H-benzo[d]imidazole]
- C11-Bodipy oxidation (lipid peroxide levels) versus DMSO (NCI-H522 cells [2]): marginally increase C11-Bodipy oxidation
- rescue of cytotoxicity by Liproxstatin-1 (NCI-H522 cells [3]): kill NCI-H522 cells at the same rates both in the absence and presence of Liproxstatin-1

Compound: C=Cc1nc2ccccc2[se]1 [Compound 42, 2-vinylbenzo[d][1,3]selenazole]
- C11-Bodipy oxidation (lipid peroxide levels) versus DMSO (NCI-H522 cells [2]): marginally increase C11-Bodipy oxidation

Compound: C#Cc1nc2ccccc2s1 [Compound 45, 2-ethynylbenzo[d]thiazole]
- incubation time after which cells cannot be rescued by washing off the drug (NCI-H522 cells [6]): 1 to 2 h
- half-life (t1/2) of thiol addition ([5]; in the absence of DABCO): > 6 h
- half-life (t1/2) of thiol addition [5, 7]: < 0.083 h
- competition with probe (65) labeling (NCI-H522 cells [4]): high competition

Compound: C#CCNC1CCC(c2csc(C#C)n2)=C1C (stereo not drawn) [Compound 64, 3-(2-ethynylthiazol-4-yl)-2-methyl-N-(prop-2-yn-1-yl)cyclopent-2-en-1-amine]
- C11-Bodipy oxidation (lipid peroxide levels) versus DMSO (NCI-H522 cells [2]): increased levels of lipid peroxides
- rescue of cytotoxicity by Liproxstatin-1 (NCI-H522 cells [3]): significant rescue

Compound: C#CCNC(=O)c1csc(C#C)n1 [Compound 65, 2-ethynyl-N-(prop-2-yn-1-yl)thiazole-4-carboxamide]
- C11-Bodipy oxidation (lipid peroxide levels) versus DMSO (NCI-H522 cells [2]): increased levels of lipid peroxides
- enrichment of GPX4 in pulldown (GPX4): selectively enriched
- rescue of cytotoxicity by Liproxstatin-1 (NCI-H522 cells [3]): significant rescue
- enrichment of GSTO1 in pulldown (GSTO1): selectively enriched

Compound: C#CCNC(=O)c1csc(C#Cc2ccccc2)n1 [Compound 66, 2-(phenylethynyl)-N-(prop-2-yn-1-yl)thiazole-4-carboxamide]
- labeling of TXRD1 in pulldown (TXRD1): has the ability to label this protein

Compound: Cc1onc(C(=O)N2CCN(C(c3ccc(Cl)cc3)c3ccc(Cl)cc3)CC2)c1[N+](=O)[O-] [ML-210, (4-(bis(4-chlorophenyl)methyl)piperazin-1-yl)(5-methyl-4-nitroisoxazol-3-yl)methanone, reference compound]
- fold increase of IC50 in the presence of Liproxstatin-1 (NCI-H522 cells [1]): about 800 fold

Compound: COC(=O)c1ccc([C@H]2c3[nH]c4ccccc4c3CC(C(=O)OC)N2C(=O)CCl)cc1 (stereo partly drawn) [RSL3, reference compound]
- incubation time after which cells cannot be rescued by washing off the drug (NCI-H522 cells [6]): 1 to 2 h

Compound: CCOc1ccccc1-n1c(C(C)N2CCN(C(=O)COc3ccc(Cl)cc3)CC2)nc2ccccc2c1=O (stereo not drawn) [erastin]
- competition with probe (65) labeling (NCI-H522 cells [4]): no competition was observed

Compound: (4-ethylpiperazin-1-yl)(2-ethynylthiazol-5-yl)methanone [Compound 75]
- IC50 (NCI-H522 cells [1]; scheme 5 analogs): > 1000 nM

Compound: (E)-1-(4-(bis(4-chlorophenyl)methyl)piperazin-1-yl)-3-(2-ethynylthiazol-5-yl)prop-2-en-1-one [Compound 78]
- IC50 (NCI-H522 cells [1]; scheme 5D): 6 nM

Compound: (E)-N-(4-chlorophenyl)-3-(2-ethynylthiazol-5-yl)acrylamide [Compound 16]
- Fold Change (NCI-H522 cells [1]): 62.64

Compound: N-(4-chlorophenyl)-2-ethynylthiazole-5-carboxamide [Compound 10]
- Fold Change (NCI-H522 cells [1]): 29.40
